# Source: US6528538B1, “Cyclic compounds useful in the treatment of dyslipidaemia, atherosclerosis and diabetes, pharamaceutical compositions and preparation process” (Merck Patentgesellschaft, priority 1998, dated 2003)
row,melting point,SMILES
1,171 °C,O=C(O)C1OCC2(CCC2c2ccc(Cl)cc2)CO1 (stereo not drawn)
2,158 to 160 °C,O=C(O)C1OCC2(CO1)c1ccccc1-c1ccccc12
3,117 °C,CCOC(=O)C1(c2ccc(Cl)cc2)OCC2(CCC2)CO1
